Experimental data published in US9468642B2, “Imidazopyrazines” (BAYER INTELLECTUAL PROPERTY GMBH, priority 2011, dated 2016).

Target: human kinase Mps-1 (Homo sapiens (Human), UniProt P33981)
Experiment: Mps-1 Kinase Assay (TR-FRET)
Type: biochemical
Details: N-terminally GST-tagged human full length recombinant Mps-1; 10 μM ATP; 1 μM peptide substrate; 60 min at 22° C.; read-out: Mps1 IC50
Protocol: The human kinase Mps-1 phosphorylates a biotinylated substrate peptide. Detection of the phosphorylated product is achieved by time-resolved fluorescence resonance energy transfer (TR-FRET) from Europium-labelled anti-phospho-Serine/Threonine antibody as donor to streptavidin labelled with cross-linked allophycocyanin (SA-XLent) as acceptor. Compounds are tested for their inhibition of the kinase activity.
N-terminally GST-tagged human full length recombinant Mps-1 kinase (purchased from Invitrogen, Karslruhe, Germany, cat. no PV4071) was used. As substrate for the kinase reaction a biotinylated peptide of the amino-acid sequence […] (C-terminus in amide form, purchased from Biosynthan GmbH, Berlin) was used.
The concentration of Mps-1 in the assay was adjusted to the activity of the enzyme lot and was chosen appropriate to have the assay in the linear range, typical enzyme concentrations were in the range of about 1 nM (final conc. in the 5 μl assay volume).
The resulting mixture was incubated 1 h at 22° C. to allow the binding of the phosphorylated peptide to the anti-phospho(Ser/Thr)-Europium-antibody. Subsequently the amount of phosphorylated substrate was evaluated by measurement of the resonance energy transfer from the Europium-labelled anti-phospho(Ser/Thr) antibody to the Streptavidin-XLent.

Chain of human kinase Mps-1 (P33981 whole entry): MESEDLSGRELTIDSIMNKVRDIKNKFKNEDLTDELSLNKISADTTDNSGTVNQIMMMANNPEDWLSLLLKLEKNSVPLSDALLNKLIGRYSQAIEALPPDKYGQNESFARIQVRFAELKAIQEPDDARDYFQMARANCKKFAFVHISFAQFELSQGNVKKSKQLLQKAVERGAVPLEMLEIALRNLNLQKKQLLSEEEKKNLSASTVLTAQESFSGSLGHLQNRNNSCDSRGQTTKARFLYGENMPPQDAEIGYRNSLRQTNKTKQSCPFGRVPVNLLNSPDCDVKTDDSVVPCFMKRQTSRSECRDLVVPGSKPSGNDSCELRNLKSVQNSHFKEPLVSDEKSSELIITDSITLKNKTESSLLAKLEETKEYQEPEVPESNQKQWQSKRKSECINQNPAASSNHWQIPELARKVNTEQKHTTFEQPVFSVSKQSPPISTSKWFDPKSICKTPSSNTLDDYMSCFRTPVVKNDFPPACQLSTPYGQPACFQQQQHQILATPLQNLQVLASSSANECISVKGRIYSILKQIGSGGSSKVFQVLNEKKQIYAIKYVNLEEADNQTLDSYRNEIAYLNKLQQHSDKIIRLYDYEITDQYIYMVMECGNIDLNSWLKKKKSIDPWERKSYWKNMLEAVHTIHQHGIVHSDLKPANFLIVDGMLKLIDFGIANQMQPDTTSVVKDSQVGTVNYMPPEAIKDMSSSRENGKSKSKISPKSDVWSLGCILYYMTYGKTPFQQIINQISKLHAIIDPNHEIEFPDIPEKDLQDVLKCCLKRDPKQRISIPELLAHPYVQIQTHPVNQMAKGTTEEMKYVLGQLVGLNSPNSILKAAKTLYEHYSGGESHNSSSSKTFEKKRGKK

Compound	IC50 [nM]
CC(=O)NCCSc1nc(-c2ccccc2)cn2c(-c3ccc(C(=O)NC4CC4)cc3)cnc12 [Example 33]	19.9
CCCCSc1nc(-c2ccccc2)cn2c(-c3ccc(C(=O)NC4CC4)cc3)cnc12 [Example 8, 4-[8-(Butylsulfanyl)-6-phenylimidazo[1,2-a]pyrazin-3-yl]-N-cyclopropylbenzamide]	26.3
CCSc1nc(-c2ccccc2)cn2c(-c3ccc(C(=O)NC4CC4)cc3)cnc12 [Example 4, N-Cyclopropyl-4-[8-(ethylsulfanyl)-6-phenylimidazo[1,2-a]pyrazin-3-yl]benzamide]	22.2
CSc1nc(-c2ccncc2)cn2c(-c3ccc(-c4cnc(C5CC5)[nH]4)cc3)cnc12 [Example 31, 3-[4-(2-cyclopropyl-1H-imidazol-5-yl)phenyl]-8-(methylsulfanyl)-6-(pyridin-4-yl)imidazo[1,2-a]pyrazine]	125
CC(C)Sc1nc(-c2ccccc2)cn2c(-c3ccc(C(=O)NC4CC4)cc3)cnc12 [Example 19, N-cyclopropyl-4-[8-(isopropylsulfanyl)-6-phenylimidazo[1,2-a]pyrazin-3-yl]benzamide]	22.3
CSc1nc(-c2ccccc2)cn2c(-c3ccc(-c4cnc(C5CC5)[nH]4)cc3)cnc12 [Example 29, 3-[4-(2-cyclopropyl-1H-imidazol-5-yl)phenyl]-8-(methylsulfanyl)-6-phenylimidazo[1,2-a]pyrazine]	544
CC(C)CCSc1nc(-c2ccccc2)cn2c(-c3ccc(C(=O)NC4CC4)cc3)cnc12 [Example 23, N-cyclopropyl-4-{8-[(3-methylbutyl)sulfanyl]-6-phenylimidazo[1,2-a]pyrazin-3-yl}benzamide]	25.2
CC(C)(C)CCS(=O)(=O)c1nc(-c2ccccc2)cn2c(-c3ccc(C(=O)NC4CC4)cc3)cnc12 [Example 11B, N-Cyclopropyl-4-{8-[(3,3-dimethylbutyl)sulfonyl]-6-phenylimidazo[1,2-a]pyrazin-3-yl}benzamide]	4.3
CC(C)(C)CCSc1nc(-c2ccccc2)cn2c(-c3ccc(C(=O)NC4CC4)cc3)cnc12 [Example 10, N-Cyclopropyl-4-{8-[(3,3-dimethylbutyl)sulfanyl]-6-phenylimidazo[1,2-a]pyrazin-3-yl}benzamide]	85.1
CSc1nc(Br)cn2c(-c3ccc(C(=O)NC4CC4)cc3)cnc12 [Example 1, 4-[6-Bromo-8-(methylsulfanyl)imidazo[1,2-a]pyrazin-3-yl]-N-cyclopropylbenzamide]	607
CC(C)CC[S+]([O-])c1nc(-c2ccccc2)cn2c(-c3ccc(C(=O)NC4CC4)cc3)cnc12 (racemic) [Example 24A, (RS) N-cyclopropyl-4-{8-[(3-methylbutyl)sulfinyl]-6-phenylimidazo[1,2-a]pyrazin-3-yl}benzamide]	14.5
O=C(NC1CC1)c1ccc(-c2cnc3c(S(=O)(=O)Cc4ccco4)nc(-c4ccccc4)cn23)cc1 [Example 28B, N-cyclopropyl-4-{8-[(2-furylmethyl)sulfonyl]-6-phenylimidazo[1,2-a]pyrazin-3-yl}benzamide]	7.1
CCCCS(=O)(=O)c1nc(-c2ccccc2)cn2c(-c3ccc(C(=O)NC4CC4)cc3)cnc12 [Example 9B, 4-[8-(Butylsulfonyl)-6-phenylimidazo[1,2-a]pyrazin-3-yl]-N-cyclopropylbenzamide]	14
CCC[S+]([O-])c1nc(-c2ccccc2)cn2c(-c3ccc(C(=O)NC4CC4)cc3)cnc12 (racemic) [Example 7A, (RS) N-Cyclopropyl-4-[6-phenyl-8-(propylsulfinyl)imidazo[1,2-a]pyrazin-3-yl]benzamide]	20
(1S or 1R)-1-(4-{3-[4-(2-cyclopropyl-1H-imidazol-5-yl)phenyl]-8-(methylsulfanyl)imidazo[1,2-a]pyrazin-6-yl}phenyl)ethanol [Example 34C]	95
O=C(NC1CC1)c1ccc(-c2cnc3c(SCC(F)(F)F)nc(-c4ccccc4)cn23)cc1 [Example 25, N-cyclopropyl-4-{6-phenyl-8-[(2,2,2-trifluoroethyl)sulfanyl]imidazo[1,2-a]pyrazin-3-yl}benzamide]	26.3
CCCCCSc1nc(-c2ccccc2)cn2c(-c3ccc(C(=O)NC4CC4)cc3)cnc12 [Example 17, N-cyclopropyl-4-[8-(pentylsulfanyl)-6-phenylimidazo[1,2-a]pyrazin-3-yl]benzamide]	79.8
CC(C)(C)OC(=O)NCCSc1nc(-c2ccccc2)cn2c(-c3ccc(C(=O)NC4CC4)cc3)cnc12 [Example 16, tert-butyl [2-({3-[4-(cyclopropylcarbamoyl)phenyl]-6-phenylimidazo[1,2-a]pyrazin-8-yl}sulfanyl)ethyl]carbamate]	67.6
O=C(NC1CC1)c1ccc(-c2cnc3c(SCc4ccco4)nc(-c4ccccc4)cn23)cc1 [Example 27, N-cyclopropyl-4-{8-[(2-furylmethyl)sulfanyl]-6-phenylimidazo[1,2-a]pyrazin-3-yl}benzamide]	40.8
C=Cc1ccc(-c2cn3c(-c4ccc(-c5cnc(C6CC6)[nH]5)cc4)cnc3c(SC)n2)cc1 [Example 30, 3-[4-(2-cyclopropyl-1H-imidazol-5-yl)phenyl]-8-(methylsulfanyl)-6-(4-vinylphenyl)imidazo[1,2-a]pyrazine]	3100
(1R or 1S)-1-(4-{3-[4-(2-cyclopropyl-1H-imidazol-5-yl)phenyl]-8-(methylsulfanyl)imidazo[1,2-a]pyrazin-6-yl}phenyl)ethanol [Example 34B]	58.2

The remaining lines, values ahead:

IC50 [nM]	Compound
11	CCCSc1nc(-c2ccccc2)cn2c(-c3ccc(C(=O)NC4CC4)cc3)cnc12 [Example 6, N-Cyclopropyl-4-[6-phenyl-8-(propylsulfanyl)imidazo[1,2-a]pyrazin-3-yl]benzamide]
5.1	O=C(NC1CC1)c1ccc(-c2cnc3c(S(=O)(=O)CCCCO)nc(-c4ccccc4)cn23)cc1 [Example 36, N-cyclopropyl-4-{8-[(4-hydroxybutyl)sulfonyl]-6-phenylimidazo[1,2-a]pyrazin-3-yl}benzamide]
13.2	CC(C)CSc1nc(-c2ccccc2)cn2c(-c3ccc(C(=O)NC4CC4)cc3)cnc12 [Example 21, N-cyclopropyl-4-[8-(isobutylsulfanyl)-6-phenylimidazo[1,2-a]pyrazin-3-yl]benzamide]
6.2	O=C(NC1CC1)c1ccc(-c2cnc3c([S+]([O-])CC(F)(F)F)nc(-c4ccccc4)cn23)cc1 (racemic) [Example 26A, (RS) N-cyclopropyl-4-{6-phenyl-8-[(2,2,2-trifluoroethyl)sulfinyl]imidazo[1,2-a]pyrazin-3-yl}benzamide]
7.5	CCCCCS(=O)(=O)c1nc(-c2ccccc2)cn2c(-c3ccc(C(=O)NC4CC4)cc3)cnc12 [Example 18B, N-cyclopropyl-4-[8-(pentylsulfonyl)-6-phenylimidazo[1,2-a]pyrazin-3-yl]benzamide]
12.7	CC(C)C[S+]([O-])c1nc(-c2ccccc2)cn2c(-c3ccc(C(=O)NC4CC4)cc3)cnc12 (racemic) [Example 22A, (RS) N-cyclopropyl-4-[8-(isobutylsulfinyl)-6-phenylimidazo[1,2-a]pyrazin-3-yl]benzamide]
8.1	O=C(NC1CC1)c1ccc(-c2cnc3c(S(=O)(=O)CC(F)(F)F)nc(-c4ccccc4)cn23)cc1 [Example 26B, N-cyclopropyl-4-{6-phenyl-8-[(2,2,2-trifluoroethyl)sulfonyl]imidazo[1,2-a]pyrazin-3-yl}benzamide]
5.2	CS(=O)(=NC(=O)C(F)(F)F)c1nc(-c2ccccc2)cn2c(-c3ccc(C(=O)NC4CC4)cc3)cnc12 (racemic) [Example 15, (RS) N-cyclopropyl-4-{8-[S-methyl-N-(trifluoroacetyl)sulfonimidoyl]-6-phenylimidazo[1,2-a]pyrazin-3-yl}benzamide]
6.4	CC(C)CS(=O)(=O)c1nc(-c2ccccc2)cn2c(-c3ccc(C(=O)NC4CC4)cc3)cnc12 [Example 22B, N-cyclopropyl-4-[8-(isobutylsulfonyl)-6-phenylimidazo[1,2-a]pyrazin-3-yl]benzamide]
6	CS(=O)(=O)c1nc(-c2ccccc2)cn2c(-c3ccc(C(=O)NC4CC4)cc3)cnc12 (racemic) [Example 3A, N-Cyclopropyl-4-[8-(methylsulfonyl)-6-phenylimidazo[1,2-a]pyrazin-3-yl]benzamide]
10.1	CCCS(=O)(=O)c1nc(-c2ccccc2)cn2c(-c3ccc(C(=O)NC4CC4)cc3)cnc12 [Example 7B, N-Cyclopropyl-4-[6-phenyl-8-(propylsulfonyl)imidazo[1,2-a]pyrazin-3-yl]benzamide]
8.9	C[S+]([O-])c1nc(-c2ccccc2)cn2c(-c3ccc(C(=O)NC4CC4)cc3)cnc12 (racemic) [Example 3B, (RS)—N-cyclopropyl-4-[8-(methylsulfinyl)-6-phenylimidazo[1,2-a]pyrazin-3-yl]benzamide]
6.5	CC(C)CCS(=O)(=O)c1nc(-c2ccccc2)cn2c(-c3ccc(C(=O)NC4CC4)cc3)cnc12 [Example 24B, N-cyclopropyl-4-{8-[(3-methylbutyl)sulfonyl]-6-phenylimidazo[1,2-a]pyrazin-3-yl}benzamide]
8	O=C(NC1CC1)c1ccc(-c2cnc3c(SCC4CCCO4)nc(-c4ccccc4)cn23)cc1 (racemic) [Example 12, (RS) N-Cyclopropyl-4-{6-phenyl-8-[(tetrahydrofuran-2-ylmethyl)sulfanyl]imidazo[1,2-a]pyrazin-3-yl}benzamide]
